Assay [1] has as its system rice POX genes. Set-up: species or system Oryza sativa cv. Nipponbare.
In assay [2] the test system is rice POX genes. As to the kind of experiment: Inducibility of rice peroxidases to ethephon and MeJA (RNA gel blot analysis). Conditions: for response of R2151 gene expression to stimuli: R2151 gene (group A1), FIG. 8(d), day 16, compared with control; for expression of R2693, R2329, S11222, prxRPA, R2576, R2184 and C52903 POX genes: leaf blades of 16-day-old seedlings, 1 mM ethephon or 25 μM MeJA solution sprayed onto whole plants, 48 hours, versus leaf blade without stress. In kind it is in vivo, Oryza sativa cv. Nipponbare. The procedure:
Gene expression was analyzed by subjecting total RNAs isolated by the ATA method (Nagy et al., Reference 35) to RNA gel blot analysis (Ausubel et al., Reference 36).
cDNA fragments containing 3′ untranslated regions of 21 rice POX genes indicated by boxes in FIG. 1 were amplified by the PCR method. The amplified fragments were used as probes specific to the respective POX genes for the RNA gel blot analysis.
The above-described RNAs were subjected to electrophoresis, followed by transcription to a membrane (HyBond N, Amersham). The specific probes were allowed to hybridize, followed by washing for 5 min (once) and for 10 min (twice) in 2×SSC containing 0.1% SDS at room temperature, and then three times in 1×SSC containing 0.1% SDS for 15 min each at 65° C. Subsequently, the membrane was subjected to autoradiography at −80° C. using a film for autoradiography (XA OMT, Kodak) overnight or more. The recovered film was analyzed by the BAS2000 Bioimaging analyzer (Fuji Photo Film Co., Ltd.) or Phosphor Imager SI (Molecular Dynamics) in accordance with the manufacturer's instruction. The amount of RNA loaded was confirmed by monitoring the level of ribosome RNA (rRNA) stained by methylene blue. The expression amounts of the POXs were compared with each other with reference to the rRNA levels.
16-day-old seedlings were produced under the conditions described in Example 2. With these seedlings, the inducibility of rice peroxidases to ethephon (an ethylene release factor) and MeJA (a wound information transfer substance) was analyzed. For ethephon stimulus, 1 mM ethephon solution containing 0.05% ethanol was used. For MeJA stimulus, 25 μM MeJA solution containing 0.125% Triton X-100 was used. These solutions were sprayed onto whole plants, and maintained for 48 hours.
RNAs were extracted from the leaf blades of stimulated rice plants in a manner as described in Example 2. For each POX, expression specificity was analyzed. As a control, leaf blade without a stress were used.

The test system of assay [3] is rice blast fungus (M. grisea race(003)). It is filed as in vivo, Magnaporthe grisea. Conditions: compatible rice treated with probenazole (100 mg/ml) two days before M. grisea race(003), 1×10^5 spores/ml; untreated compatible rice: days 4 and 5.
Another assay deals with POX genes. In kind it is in vivo, Oryza sativa cv. Nipponbare. Conditions: probenazole-treated rice, before and 2, 3, 4 and 5 days after rice blast fungus treatment; FIG. 24.

Results on 4 compounds are retold here after patent US20040091860A1 (priority 1999, published 2004).

The structures appear in SMILES notation.

In the case of `C[n+]1ccc(-c2cc[n+](C)cc2)cc1` [paraquat, 1,1-dimethyl-4,4-dipyridinium dichloride], in the assay on rice POX genes [1], the “expression of R2329, prxRPA, R2576 and C52903” value is “induced”; the “expression of apoplastic (R2329, prx2576 and R2576) and vacuolar (e.g., R2184 and C52903) POXs” value was “induced the expression”.

Regarding `O=P(O)(O)CCCl` [Ethephon, ethephon], in the assay on rice POX genes [2], the “response of R2151 gene expression to stimuli” value was “reducible responses”; the “expression of R2693, R2329, S11222, prxRPA, R2576, R2184 and C52903 POX genes” value was “induced expression”.

On to `C=CCOC1=NS(=O)(=O)c2ccccc21` [probenazole], for which the “lesion spot formation found on days after rice blast fungus treatment” value in assay [3] is reported as 2 to 3 days. The “expression patterns with E2184, R2576, R2693 and R2329 as probes” value in the assay on POX genes is listed as “significantly similar to the transition pattern of formation of lesion spots”.

`CC/C=C\CC1C(=O)CCC1CC(=O)OC` (centres unmarked) [MeJA, methyl jasmonate]: in the assay on rice POX genes [2], the “response of R2151 gene expression to stimuli” value is listed as “reducible responses”; the “expression of R2693, R2329, S11222, prxRPA, R2576, R2184 and C52903 POX genes” value is on record as “induced expression”.
